What was measured:
[1] = test system: pooled human liver microsomal preparations (HLM); experiment: Compound 1 metabolism / metabolite formation in reconstituted system with pooled HLM; assay type: in vitro ADME; conditions: estimated by UV absorbance at 270 nm, metabolite formed or Compound 1 left after 1 hour with NADPH
Experimental: (§1) The metabolism of Compound 1 was determined by the disappearance of Compound 1 or the appearance of Compound 1 metabolites in reaction mixtures as compared to respective controls. Compound 1 was incubated in the reconstituted in vitro reaction systems containing pooled human liver S9 fractions, microsomal preparations, or recombinant hepatic CYP forms, including CYP1A2, CYP2C9, CYP2C19, CYP2D6, CYP2E1, and CYP3A4. The reaction mixture (total volume of 250 μL) contained 0.5 mg of liver microsomal protein, 50 or 25 pmol of recombinant CYP, and Compound 1 (50-80 μM) in 50 mM Tris buffer containing 15 mM MgCl2 (pH 7.4). After incubating at 37° C. with gentle shaking for 1 minute, the reaction was initiated by adding 25 μL of NADPH solution (20 mg/mL), and was carried out for 1 hour. The reaction was terminated by quickly cooling the test tube on ice, followed by the addition of an equal volume of 100% methanol. The samples were centrifuged in a desktop centrifuge at 14,000 rpm for 5 minutes, and the supernatants were filtered through syringe filters (13 mm, 0.45 μm). The filtrates were subjected to analysis using LC/MS (ion trap) or LC/MS/MS.
1. […] The detector was monitored at 270 nm, which is the UVmax of Compound 1 predetermined by scanning between 225-400 nm using a photodiode array detector (PDA). […]

CYP2C19 = CYP2C19 (Homo sapiens, UniProt P33261); experiment: Compound 1 metabolism / metabolite formation by recombinant CYP2C19; assay type: in vitro ADME; parameters: purchased Gentest Corp. (Woburn, Mass.); host or cells: insect cells (microsomal preparation)
Experimental: as §1
(§2) 1. LC/MS (LCQ ion trap mass spectrometer, Finnigan Corp., San Jose, Calif.): Hewlett Packard 1100 HPLC system (Waldbronn, Germany) consisted of a binary pump, an autosampler, a column compartment unit, and an online variable wavelength UV detector (VWD). The detector was monitored at 270 nm, which is the UVmax of Compound 1 predetermined by scanning between 225-400 nm using a photodiode array detector (PDA). The metabolites were separated on a Hewlett Packard Eclipse C18 column (150×2.1 mm). The mobile phases were 10 nmM ammonium acetate at pH 4.8 (A) and acetonitrile (B). The gradient (B) was 10% (0-6 minutes), 22% (12-22 minutes), 90% (25-30 minutes), and 10% (31 minutes and after). The flow rate was 0.25 mL/minute. Software Navigator (Version 1.2, Finnigan Corp.) was used to control the HPLC and MS and to acquire the data. The MS was operated at positive electrospray ionization (ESI) with 5.2 kV ionization potential and 220° C. heated capillary temperature. The product ion spectra were generated under 24V collision energy, which was optimized for the fragmentation of Compound 1.
2. LC/MS/MS (SCIEX API2000 triple quadrupole mass spectrometer, PE Biosystem, Foster City, Calif.): The same HPLC system described above was coupled with a tandem mass spectrometer. The metabolites were separated on a Sulpelco Discovery C18 column (150×2.1 mm), and the mobile phase described previously was run at 1.0 mL/min with a 1:10 split. The gradient (B) was 20% (0-6 minutes), 60% (14-18 minutes), 95% (20-24 minutes), and 20% (25 minutes and after). The operation of the HPLC and the MS/MS was controlled by MacChrom (Version 1.6, PE Biosystem). […]

CYP3A4 = CYP3A4 (Homo sapiens, UniProt P08684); experiment: Compound 1 metabolism / metabolite formation by recombinant CYP3A4; assay type: in vitro ADME; parameters: purchased Gentest Corp. (Woburn, Mass.); host or cells: insect cells (microsomal preparation); conditions: recombinant CYP3A4; estimated by UV absorbance at 270 nm; metabolite formed or Compound 1 left after 1 hour with NADPH
Experimental: as §1
as §2, with “The MS was operated at positive electrospray ionization (ESI) with 5.2 kV ionization potential and 220° C. heated capillary temperature. The product ion spectra were generated under 24V collision energy, which was optimized for the fragmentation of Compound 1.” left out

CYP2D6 = CYP2D6 (Homo sapiens, UniProt P10635); experiment: Compound 1 metabolism / metabolite formation by recombinant CYP2D6; assay type: in vitro ADME; parameters: purchased Gentest Corp. (Woburn, Mass.); host or cells: insect cells (microsomal preparation); conditions: recombinant CYP2D6, NADPH
Experimental: as §1
as §2, with “The MS was operated at positive electrospray ionization (ESI) with 5.2 kV ionization potential and 220° C. heated capillary temperature. The product ion spectra were generated under 24V collision energy, which was optimized for the fragmentation of Compound 1.” left out

CYP1A1/2 = experiment: CYP induction in primary human hepatocytes, Western immunoblotting: CYP1A1/2; assay type: cell-based; conditions: TCDD 0.4 μM, 72 hours
Experimental: Upon receiving a primary culture of human hepatocytes in 6-well plates, the culture medium containing streptomycin/penicillin was refreshed (2 ml/well). […] Compound 1 stock solution was added to the culture medium at a 1:400 ratio (v/v). The culture medium and testing compounds were replenished every 24 hours.
At the end of the treatment, the cells were harvested into 1 mL of phosphate-buffered saline (PBS) after washing twice. The cells were precipitated by centrifugation, and were resuspended in PBS (approximately 50 μL). The sample preparation, after mixing with […] of Laemmli buffer (62.5 mM Tris-HCl containing 2% SDS, 25% glycerol, and 0.01% bromophenol, pH 6.8) and being rocked for 2-4 hours, was mixed with 10 μL of 2-mercaptoethanol, and heated at 90° C. for 10 minutes before electrophoresis.
Proteins were resolved in a 12% SDS-PAGE gel using a mini gel apparatus at a constant voltage ([…]) for 70-80 minutes, and transferred onto a polyvinylidene difluoride (PVDF) membrane using a membrane-transferring unit at a constant voltage ([…]) for 60 minutes. The membrane was blocked by 5% non-fat dried milk (NFDM) blotting buffer (PBS containing 0.05% Tween 20) at 4° C. overnight. […] CYP proteins were detected by […] using an X-ray developer.

Sequence of CYP2C19 (P33261 whole entry): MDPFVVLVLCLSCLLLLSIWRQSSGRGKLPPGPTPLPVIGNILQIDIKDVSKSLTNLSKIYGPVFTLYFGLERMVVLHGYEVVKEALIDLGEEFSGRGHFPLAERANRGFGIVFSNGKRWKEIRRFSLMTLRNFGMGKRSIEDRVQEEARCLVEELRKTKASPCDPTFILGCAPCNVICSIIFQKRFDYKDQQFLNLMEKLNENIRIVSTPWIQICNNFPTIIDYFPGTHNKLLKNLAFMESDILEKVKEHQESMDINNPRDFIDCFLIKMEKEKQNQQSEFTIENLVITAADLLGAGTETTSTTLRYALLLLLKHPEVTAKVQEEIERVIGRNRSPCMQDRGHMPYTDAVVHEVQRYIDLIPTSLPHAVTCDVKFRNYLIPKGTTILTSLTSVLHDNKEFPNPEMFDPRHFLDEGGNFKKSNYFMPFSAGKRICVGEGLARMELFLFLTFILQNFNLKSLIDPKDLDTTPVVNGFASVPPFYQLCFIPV
Sequence of CYP2D6 (P10635 whole entry): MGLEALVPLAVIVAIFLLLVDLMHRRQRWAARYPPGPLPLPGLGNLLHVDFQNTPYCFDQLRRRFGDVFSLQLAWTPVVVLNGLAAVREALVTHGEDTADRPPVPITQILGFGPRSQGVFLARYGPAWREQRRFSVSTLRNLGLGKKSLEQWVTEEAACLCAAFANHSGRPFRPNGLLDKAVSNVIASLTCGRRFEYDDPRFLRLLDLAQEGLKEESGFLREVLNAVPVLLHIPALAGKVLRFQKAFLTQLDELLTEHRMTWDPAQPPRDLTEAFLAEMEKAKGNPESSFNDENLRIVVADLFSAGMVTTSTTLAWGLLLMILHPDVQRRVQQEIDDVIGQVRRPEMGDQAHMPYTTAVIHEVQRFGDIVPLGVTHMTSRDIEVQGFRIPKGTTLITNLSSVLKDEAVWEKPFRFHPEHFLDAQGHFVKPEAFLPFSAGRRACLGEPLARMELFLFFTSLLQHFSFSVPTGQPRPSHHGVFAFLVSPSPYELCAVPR
Sequence of CYP3A4 (P08684 whole entry): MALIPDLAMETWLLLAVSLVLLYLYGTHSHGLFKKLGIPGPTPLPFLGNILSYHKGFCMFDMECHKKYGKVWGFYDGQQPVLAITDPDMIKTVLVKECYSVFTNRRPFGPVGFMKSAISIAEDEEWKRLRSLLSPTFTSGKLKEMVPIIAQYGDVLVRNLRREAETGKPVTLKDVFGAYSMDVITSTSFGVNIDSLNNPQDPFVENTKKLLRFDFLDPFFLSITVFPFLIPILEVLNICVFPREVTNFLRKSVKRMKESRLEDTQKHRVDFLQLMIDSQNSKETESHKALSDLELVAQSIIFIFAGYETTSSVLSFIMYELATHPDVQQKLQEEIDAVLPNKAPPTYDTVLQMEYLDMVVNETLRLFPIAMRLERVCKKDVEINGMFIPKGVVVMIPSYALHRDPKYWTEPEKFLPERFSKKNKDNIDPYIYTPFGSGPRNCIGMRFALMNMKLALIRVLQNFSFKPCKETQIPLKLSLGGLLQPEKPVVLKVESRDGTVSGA

Row | SMILES | Rel. Amount (%) [1] | formation of the metabolite from Compound 1 by CYP2C19 (in words) (CYP2C19; recombinant CYP2C19, NADPH) | Rel. Amount (%) (CYP2C19; recombinant CYP2C19, estimated by UV absorbance at 270 nm, metabolite formed or Compound 1 left after 1 hour with NADPH) | Rel. Amount (%) (CYP3A4) | formation of the metabolite from Compound 1 by CYP2D6 (in words) (CYP2D6) | expression of CYP1A1/2 (Western immunoblotting), positive control (CYP1A1/2)
1 | CNC(=O)Cc1ccc2ccn(C3CCNCC3)c2c1 [Compound M4] | 21% | formed | 20% | 31% | formed | 
2 | Clc1cc2c(cc1Cl)Oc1cc(Cl)c(Cl)cc1O2 [TCDD, 2,3,7,8-tetrachlorodibenzo-p-dioxin, reference compound] |  |  |  |  |  | elevated expressions
